Results: US11952387B2, “Bicyclic heteroaromatic ring derivative” (priority 2018, dated 2024)

What follows are compounds tested on HRV14 (assay: Inhibitory activity against human rhinovirus infection and replication (quantitative real-time PCR)). Details: Human rhinovirus sp., MRC5; 100 nmol/L test compound; MRC-5 cells infected with HRV14 at MOI=0.2; 48 hours; viral load normalized to 18s rRNA; read-out: Percent Inhibition.
Assay type: cell-based
Method: Evaluation of inhibitory activity against human rhinovirus infection and replication (by quantitative real-time PCR)
A required amount of a test compound was weighed off and dissolved in dimethyl sulfoxide (DMSO) to yield a 10 mmol/L stock solution. Next, the stock solution was diluted with a medium for viral infection (minimum essential medium (MEM) supplemented with 2% fetal bovine serum, 5% Tryptose phosphate broth, and 30 mmol/L MgCl2) to prepare 100 nmol/L and 1000 nmol/L of test compound solutions. MRC-5 (human fetal lung fibroblast: ATCC) was suspended at a density of 30000 cells/mL in cell culture medium (MEM supplemented with 10% fetal bovine serum), and 625 μL of the suspension per well was seeded into a 24-well cell culture plate and cultured at 37° C. in 5% CO2. After 72 hours, it was confirmed that the plate had become 80% confluent. The plate was washed with 625 μL of phosphate-buffered physiological saline (Ca/Mg-free; PBS-) once, and 625 μL of the test compound solution prepared just before use was immediately added to the plate. After 30 minutes, the medium was removed followed by addition of 187.5 μL of the test compound solution that had been prepared such that the cells were infected with HRV14 (ATCC) at multiplicity of infection (MOI)=0.2. The cells were then cultured at 35° C. in 5% CO2. After additional 2 hours, 625 μL of the test compound solution prepared just before use was added, and the cells were cultured at 35° C. in 5% CO2. After 48 hours, the cells were washed with 625 μL of PBS- once, and total RNA was extracted from the cells using RNeasy (R) plus kit (Qiagen) according to the manufacturer's instruction. Subsequently, cDNA was synthesized using High-Capacity cDNA Reverse Transcription Kit (Thermo Fisher Scientific). Finally, quantitative real-time PCR was performed in 7500 Fast Real-time PCR system (Life technologies) to measure HRV14 and 18s rRNA. The measurement protocol consisted of the initial denaturation phase at 95° C. for 20 seconds followed by 40 cycles of the denaturation step at 95° C. for 3 seconds and the annealing/elongation step at 60° C. for 30 seconds. The primers used were HRV14 forward primer set forth in SEQ ID NO: 1 and HRV14 reverse primer set forth in SEQ ID NO: 2, and the probe is set forth in SEQ ID NO: 3.
18s rRNA was measured using Eukaryotic 18S rRNA Endogenous Control (Applied Biosystems). According to Equation 1, 18s ribosomal RNA was used as an internal standard to normalize the viral load of HRV14: Viral load of HRV14=The amount of HRV14 in virus-infected cells/the amount of 18s rRNA in virus-infected cells Equation 1
Inhibitory activity of test compounds was calculated as a percent inhibition (%) according to Equation 2: Percent inhibition (%)=[the viral load of HRV in virus-infected cells in the absence of the test compound −the viral load of HRV in virus-infected cells in the presence of the test compound]/[the viral load of HRV in virus-infected cells in the absence of the test compound]×100 Equation 2
The results of using 100 nmol/L test compound solutions were shown in the tables below according to Examples. In the tables, percent inhibition was expressed as follows: percent inhibition >80%: +++, 80%≥percent inhibition >50%: ++, and 50%≥percent inhibition:+.

Compound	inhibition at 0.1 µM [%]
COc1ccc(-c2c(C)nc3sc(C(C)(C)O)cn23)cc1S(=O)(=O)N[C@H]1CC[C@@H](OC)CC1 [Example 2-2]	≤ 50
COc1c(F)cc(-c2c(C)nc3sc(C(C)(C)C)cn23)cc1S(=O)(=O)N[C@H]1CC[C@@H](O)CC1 [Example 2-3]	> 80
COc1ccc(-c2c(C)nc3sc(C(C)(C)O)cn23)cc1S(=O)(=O)NC(C)(C)CO [Example 2-4]	≤ 50
Cc1nc2sc(C(C)(C)O)cn2c1-c1ccc(N(C)C)c(S(=O)(=O)N[C@H]2CC[C@@H](O)CC2)c1 [Example 2-5]	≤ 50
Cc1nc2sc(C(C)(C)O)nn2c1-c1ccc(C#N)c(S(=O)(=O)N[C@H]2CC[C@H](O)CC2)c1 [Example 2-6]	≤ 50
Cc1nc2sc(C(C)(C)O)nn2c1-c1ccc(OC(F)(F)F)c(S(=O)(=O)N[C@H]2CC[C@H](O)CC2)c1 [Example 2-7]	> 80
COc1c(F)cc(-c2c(C)nc3sc(C(C)(C)O)nn23)cc1S(=O)(=O)N[C@H]1CC[C@H](O)CC1 [Example 2-8]	> 80
Cc1nc2sc(C(C)(C)O)nn2c1-c1ccc(C(F)(F)F)c(S(=O)(=O)N(C)[C@H]2CC[C@H](O)CC2)c1 [Example 2-9]	> 80
Cc1nc2sc(C(C)(C)O)nn2c1-c1ccc(C(F)(F)F)c(S(=O)(=O)NC23CCC(O)(CC2)CC3)c1 [Example 2-10]	> 80
Cc1nc2sc(C(C)(C)O)nn2c1-c1cnc(C(F)(F)F)c(S(=O)(=O)N[C@H]2CC[C@H](O)CC2)c1 [Example 2-11]	≤ 50
COc1ccc(-c2c(C)nc3sc(C(C)(C)O)nn23)cc1S(=O)(=O)CCO [Example 2-12]	≤ 50
COc1ccc(-c2c(C)nc3sc(C(C)(C)O)nn23)cc1S(C)(=O)=O [Example 2-13]	≤ 50
Cc1nc2sc(C(C)(C)O)nn2c1-c1ccc(C(F)(F)F)c(S(=O)(=O)CCO)c1 [Example 2-14]	≤ 50
Cc1nc2sc(C3CC3)nn2c1-c1ccc(C(F)(F)F)c(S(=O)(=O)CCO)c1 [Example 2-15]	50 to 80
Cc1nc2sc(C(C)(C)O)nn2c1-c1ccc(C(F)(F)F)c(S(=O)(=O)N[C@H]2C[C@H](O)C2)c1 [Example 2-16]	> 80
Cc1nc2sc(C(C)(C)O)nn2c1-c1ccc(C(F)(F)F)c(S(=O)(=O)N[C@H]2C[C@@H](O)C2)c1 [Example 2-17]	> 80
Cc1nc2sc(C(C)(C)O)nn2c1-c1ccc(C(F)(F)F)c(S(=O)(=O)N[C@]2(C)C[C@@H](O)C2)c1 [Example 2-18]	> 80
Cc1nc2sc(C(C)(C)O)nn2c1-c1ccc(C(F)(F)F)c(S(=O)(=O)N[C@]2(C)C[C@H](O)C2)c1 [Example 2-19]	> 80
Cc1nc2sc(C(C)(C)O)nn2c1-c1ccc(C(F)(F)F)c(S(=O)(=O)NC2(CO)CC2)c1 [Example 2-20]	> 80
Cc1nc2sc(C(C)(C)O)nn2c1-c1ccc(C(F)(F)F)c(S(=O)(=O)NCC(C)(C)O)c1 [Example 2-21]	> 80
Cc1nc2sc(C(C)(C)O)nn2c1-c1ccc(C(F)(F)F)c(S(=O)(=O)NC2COC2)c1 [Example 2-22]	> 80
Cc1nc2sc(C(C)(C)O)nn2c1-c1ccc(C(F)(F)F)c(S(=O)(=O)CC2CC(O)C2)c1 (centres unmarked) [Example 2-23]	50 to 80
CC(=O)N1CC(NS(=O)(=O)c2cc(-c3c(C)nc4sc(C(C)(C)O)nn34)ccc2C(F)(F)F)C1 [Example 2-24]	≤ 50
COc1ccc(-c2c(C)nc3sc(C(C)(C)O)nn23)cc1S(=O)(=O)C(C)C [Example 2-25]	≤ 50
Cc1nc2sc(C(C)(C)O)nn2c1-c1ccc(C(F)(F)F)c(S(=O)(=O)CC2(C)COC2)c1 [Example 2-26]	> 80
Cc1nc2sc(C(C)(C)O)nn2c1-c1ccc(C(F)(F)F)c(S(=O)(=O)CC(C)(C)O)c1 [Example 2-27]	> 80
Cc1nc2sc(C(C)(C)O)nn2c1-c1ccc(C(F)(F)F)c(S(=O)(=O)C2COC2)c1 [Example 2-28]	> 80

Compound	inhibition at 0.1 µM [%]
COc1c(F)cc(-c2c(C)nc3sc(C(C)(C)O)nn23)cc1S(=O)(=O)NC(C)(C)CO [Example 2-29]	> 80
Cc1nc2sc(C(C)(C)O)nn2c1-c1ccc(C(F)(F)F)c(S(=O)(=O)NCC2(O)COC2)c1 [Example 2-30]	> 80
Cc1nc2sc(C(C)(C)O)nn2c1-c1ccc(C(F)(F)F)c(S(=O)(=O)NC2(CO)COC2)c1 [Example 2-31]	> 80
Cc1nc2sc(C(C)(C)O)nn2c1-c1ccc(C(F)(F)F)c(S(=O)(=O)NC2(CO)CC(F)(F)C2)c1 [Example 2-32]	> 80
Cc1nc2sc(C(C)(C)O)nn2c1-c1ccc(C(F)(F)F)c(S(=O)(=O)NCC(O)C(F)(F)F)c1 (centres unmarked) [Example 2-33]	> 80
COc1ccc(-c2c(C)nc3sc(C(C)(C)O)nn23)cc1S(=O)(=O)C(C)(C)C [Example 2-34]	> 80
Cc1nc2sc(C(C)(C)O)nn2c1-c1ccc(C(F)(F)F)c(S(=O)(=O)CC2(CO)COC2)c1 [Example 2-35]	50 to 80
Cc1nc2sc(C(C)(C)O)nn2c1-c1ccc(C(F)(F)F)c(S(=O)(=O)C2CN(C(=O)OC(C)(C)C)C2)c1 [Example 2-36]	> 80
Cc1nc2sc(C(C)(C)O)nn2c1-c1ccc(C(F)F)c(S(=O)(=O)CC(C)(C)O)c1 [Example 2-37]	50 to 80
Cc1nc2sc(C(C)(C)O)nn2c1-c1cccc(S(=O)(=O)CC(C)(C)O)c1 [Example 2-38]	≤ 50
Cc1ccc(-c2c(C)nc3sc(C(C)(C)O)nn23)cc1S(=O)(=O)CC(C)(C)O [Example 2-39]	> 80
COc1ccc(-c2c(C)nc3sc(C(C)(C)O)nn23)cc1S(=O)(=O)CC1(O)COC1 [Example 2-40]	≤ 50
COc1ccc(-c2c(C)nc3sc(C(C)(C)O)nn23)cc1S(=O)(=O)CC1(C)COC1 [Example 2-41]	50 to 80
COc1ccc(-c2c(C)nc3sc(C(C)(C)O)nn23)cc1S(=O)(=O)CCC(C)(C)O [Example 2-42]	≤ 50
COc1c(F)cc(-c2c(C)nc3sc(C(C)(C)O)nn23)cc1S(=O)(=O)CC(C)(C)O [Example 2-43]	50 to 80
Cc1nc2sc(C(C)(C)O)nn2c1-c1ccc(C(F)(F)F)c(S(=O)(=O)C2CC(F)(F)C2)c1 [Example 2-44]	> 80
Cc1nc2sc(C(C)(C)O)nn2c1-c1ccc(C(F)(F)F)c(S(=O)(=O)CCC(C)(C)O)c1 [Example 2-45]	≤ 50
Cc1nc2sc(C(C)(C)O)nn2c1-c1ccc(C(F)(F)F)c(S(=O)(=O)[C@H]2C[C@@H](O)C2)c1 [Example 2-46]	> 80
Cc1nc2sc(C(C)(C)O)nn2c1-c1ccc(C(F)(F)F)c(S(=O)(=O)[C@H]2C[C@H](O)C2)c1 [Example 2-47]	> 80
COc1ccc(-c2c(C)nc3sc(C(C)(C)O)nn23)cc1S(=O)(=O)C1COC1 [Example 2-49]	≤ 50
COc1ccc(-c2c(C)nc3sc(C(C)(C)O)nn23)cc1S(=O)(=O)CC(C)(C)CO [Example 2-50]	≤ 50
COc1ccc(-c2c(C)nc3sc(C(C)(C)O)nn23)cc1S(=O)(=O)C1CN(C(=O)OC(C)(C)C)C1 [Example 2-51]	> 80
Cc1nc2sc(C(C)(C)O)cn2c1-c1ccc(C(F)(F)F)c(S(=O)(=O)CC(C)(C)O)c1 [Example 2-52]	≤ 50
[2H]C([2H])([2H])C(O)(CS(=O)(=O)c1cc(-c2c(C)nc3sc(C(C)(C)O)nn23)ccc1OC)C([2H])([2H])[2H] [Example 2-53]	50 to 80
COc1ccc(-c2c(C)nc3sc(C(C)(C)O)nn23)cc1S(=O)(=O)[C@H]1C[C@@H](O)C1 [Example 2-54]	≤ 50
COc1ccc(-c2c(C)nc3sc(C(C)(C)O)nn23)cc1S(=O)(=O)[C@H]1C[C@@](C)(O)C1 [Example 2-55]	≤ 50
